Measurements published in paper PMC6199744, “Development of Chemical Proteomics for the Folateome and Analysis of the Kinetoplastid Folateome” (ACS Infectious Diseases, 2018).
Where two headings read alike, the source gives them in different places.

Experiments:
Type in all cases: binding
[1] = biological target: T1, HeLa cell extract proteins (Homo sapiens, UniProt O43242)
T1 construct: endogenous in cells; host or cells: HeLa cell extract

[2] = biological target: T2, HeLa cell extract proteins (Homo sapiens, UniProt Q16881)
T2 construct: endogenous in cells; host or cells: HeLa cell extract
T2 sequence (Q16881 1-649): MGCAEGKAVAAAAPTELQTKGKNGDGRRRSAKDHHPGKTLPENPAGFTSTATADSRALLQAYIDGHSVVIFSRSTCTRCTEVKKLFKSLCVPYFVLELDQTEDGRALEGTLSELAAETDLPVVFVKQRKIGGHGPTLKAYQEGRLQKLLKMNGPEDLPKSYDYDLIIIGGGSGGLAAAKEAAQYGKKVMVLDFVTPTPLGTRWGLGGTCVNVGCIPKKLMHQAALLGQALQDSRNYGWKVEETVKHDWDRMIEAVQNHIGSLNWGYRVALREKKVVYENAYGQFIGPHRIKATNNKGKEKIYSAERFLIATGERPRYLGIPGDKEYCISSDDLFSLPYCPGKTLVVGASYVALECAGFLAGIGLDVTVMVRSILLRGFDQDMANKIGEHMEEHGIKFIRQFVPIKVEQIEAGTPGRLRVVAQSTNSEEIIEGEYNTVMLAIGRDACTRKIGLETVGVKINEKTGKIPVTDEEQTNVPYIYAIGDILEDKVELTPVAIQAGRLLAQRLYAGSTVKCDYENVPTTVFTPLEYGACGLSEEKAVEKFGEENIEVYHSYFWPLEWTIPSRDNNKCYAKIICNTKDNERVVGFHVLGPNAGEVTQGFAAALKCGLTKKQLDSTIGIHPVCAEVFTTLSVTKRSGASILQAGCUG

[3] = biological target: T3, HeLa cell extract proteins (Homo sapiens, UniProt O75874)
T3 construct: endogenous in cells; host or cells: HeLa cell extract

[4] = biological target: T4, HeLa cell extract proteins (Homo sapiens, UniProt O60313)
T4 construct: endogenous in cells; host or cells: HeLa cell extract
T4 sequence (O60313 88-960): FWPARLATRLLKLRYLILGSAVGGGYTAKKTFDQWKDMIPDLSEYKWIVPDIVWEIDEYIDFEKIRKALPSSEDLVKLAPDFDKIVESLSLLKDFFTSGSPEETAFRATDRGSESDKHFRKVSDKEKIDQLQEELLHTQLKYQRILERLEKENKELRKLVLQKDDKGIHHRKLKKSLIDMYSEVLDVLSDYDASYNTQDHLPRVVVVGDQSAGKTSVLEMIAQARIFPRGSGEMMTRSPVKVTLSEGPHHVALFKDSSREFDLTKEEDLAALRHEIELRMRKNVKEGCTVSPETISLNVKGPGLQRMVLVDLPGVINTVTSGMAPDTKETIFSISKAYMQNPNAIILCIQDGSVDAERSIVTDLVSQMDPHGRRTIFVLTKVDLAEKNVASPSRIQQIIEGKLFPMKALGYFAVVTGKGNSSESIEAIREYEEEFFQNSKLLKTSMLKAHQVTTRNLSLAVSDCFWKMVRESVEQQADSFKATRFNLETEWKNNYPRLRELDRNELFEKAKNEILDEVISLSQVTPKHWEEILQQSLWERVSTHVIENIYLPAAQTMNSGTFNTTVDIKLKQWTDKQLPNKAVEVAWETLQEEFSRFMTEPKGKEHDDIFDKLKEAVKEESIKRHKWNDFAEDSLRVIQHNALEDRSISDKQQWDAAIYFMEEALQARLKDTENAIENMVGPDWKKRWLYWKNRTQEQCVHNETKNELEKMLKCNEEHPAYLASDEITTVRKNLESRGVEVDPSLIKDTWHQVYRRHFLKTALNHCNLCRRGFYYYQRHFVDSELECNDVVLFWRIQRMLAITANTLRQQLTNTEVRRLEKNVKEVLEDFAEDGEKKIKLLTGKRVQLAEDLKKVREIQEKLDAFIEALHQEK

[5] = biological target: T5, HeLa cell extract proteins (Homo sapiens, UniProt P16278)
T5 construct: endogenous in cells; host or cells: HeLa cell extract
T5 sequence (P16278 29-677): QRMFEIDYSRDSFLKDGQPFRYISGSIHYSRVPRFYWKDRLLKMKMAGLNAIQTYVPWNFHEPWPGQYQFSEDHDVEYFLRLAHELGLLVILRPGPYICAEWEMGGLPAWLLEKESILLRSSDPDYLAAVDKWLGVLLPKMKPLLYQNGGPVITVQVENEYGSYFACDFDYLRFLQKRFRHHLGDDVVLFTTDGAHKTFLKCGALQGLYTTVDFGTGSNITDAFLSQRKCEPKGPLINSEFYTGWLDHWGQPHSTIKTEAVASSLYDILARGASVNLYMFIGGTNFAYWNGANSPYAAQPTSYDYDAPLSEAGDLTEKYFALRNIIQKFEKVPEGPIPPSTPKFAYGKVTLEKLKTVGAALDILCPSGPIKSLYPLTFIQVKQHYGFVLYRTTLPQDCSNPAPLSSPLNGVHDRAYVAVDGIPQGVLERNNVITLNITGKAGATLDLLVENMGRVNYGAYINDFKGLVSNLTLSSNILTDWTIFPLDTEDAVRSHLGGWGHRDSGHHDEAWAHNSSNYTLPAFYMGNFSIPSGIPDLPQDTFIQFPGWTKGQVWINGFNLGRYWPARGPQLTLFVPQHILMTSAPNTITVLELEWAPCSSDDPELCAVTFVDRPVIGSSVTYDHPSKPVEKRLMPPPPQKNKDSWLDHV

[6] = HeLa, protein IDH1 (ISOCITRATE DEHYDROGENASE [NADP] CYTOPLASMIC.)

T1 sequence (O43242 whole entry): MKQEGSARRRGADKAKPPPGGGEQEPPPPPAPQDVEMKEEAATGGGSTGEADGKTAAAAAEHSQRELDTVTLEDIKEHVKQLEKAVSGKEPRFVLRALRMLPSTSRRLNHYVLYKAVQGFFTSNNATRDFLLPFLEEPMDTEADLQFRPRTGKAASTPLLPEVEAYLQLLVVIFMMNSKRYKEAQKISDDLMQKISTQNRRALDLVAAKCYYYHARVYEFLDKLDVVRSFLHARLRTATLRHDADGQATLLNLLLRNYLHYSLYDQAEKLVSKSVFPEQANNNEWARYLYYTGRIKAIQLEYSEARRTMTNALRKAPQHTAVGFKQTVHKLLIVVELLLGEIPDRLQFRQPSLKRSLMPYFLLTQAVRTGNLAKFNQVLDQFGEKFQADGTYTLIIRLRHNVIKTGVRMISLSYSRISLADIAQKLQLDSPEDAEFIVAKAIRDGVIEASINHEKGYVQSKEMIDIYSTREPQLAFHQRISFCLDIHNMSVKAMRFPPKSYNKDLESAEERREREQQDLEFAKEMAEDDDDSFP
T3 sequence (O75874 whole entry): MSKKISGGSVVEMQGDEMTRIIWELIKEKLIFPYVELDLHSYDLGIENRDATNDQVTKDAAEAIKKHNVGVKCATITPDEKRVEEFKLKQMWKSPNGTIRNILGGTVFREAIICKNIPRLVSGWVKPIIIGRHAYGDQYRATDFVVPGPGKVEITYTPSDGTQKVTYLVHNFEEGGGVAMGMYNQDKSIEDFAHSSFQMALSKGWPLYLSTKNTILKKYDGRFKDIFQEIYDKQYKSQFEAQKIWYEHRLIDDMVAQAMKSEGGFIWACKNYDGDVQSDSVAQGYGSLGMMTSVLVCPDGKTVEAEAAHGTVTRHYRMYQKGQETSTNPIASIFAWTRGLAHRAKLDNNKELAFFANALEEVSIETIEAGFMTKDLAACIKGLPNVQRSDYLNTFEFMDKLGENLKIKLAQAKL

Structure (SMILES) | fold changes relative to vehicle control ([1]; protein PSMD3, HeLa) | fold changes relative to vehicle control ([2]; protein TXNRD1, HeLa) | fold changes relative to vehicle control [3, 6] [fold] | fold changes relative to vehicle control ([4]; HeLa, protein OPA1) | fold changes relative to vehicle control ([5]; captured protein GLB1, HeLa) | fold changes relative to vehicle control [1] | fold changes relative to vehicle control [2] | fold changes relative to vehicle control [3] | fold changes relative to vehicle control [4] | fold changes relative to vehicle control [5] | fold changes relative to vehicle control ([2]; HeLa, captured protein TXNRD1) | fold changes relative to vehicle control ([3]; HeLa, captured protein IDH1) | fold changes relative to vehicle control ([5]; HeLa, captured protein GLB1)
Nc1nc2cccc(-c3ccccc3)c2n1Cc1ccc(Cl)c(Cl)c1 [compound 3] | 1.1 | 1.05 | 0.95 | 1.01 | 0.99 | – | – | – | – | – | – | – | –
Nc1nc2[nH]cc(CCc3ccc(C(=O)N[C@@H](CCC(=O)O)C(=O)O)cc3)c2c(=O)[nH]1 [PTX, pemetrexed] | – | – | – | – | – | 1.1 | 1.16 | 1.18 | 0.84 | 0.99 | – | – | –
Nc1nc2c(c(=O)[nH]1)N(C=O)C(CNc1ccc(C(=O)N[C@@H](CCC(=O)O)C(=O)O)cc1)CN2 (some centres unmarked) [LEU, leucovorin] | 1.08 | – | – | 0.88 | – | – | – | – | – | – | 1.18 | 1.14 | 1.01
CCCCCCOc1cccc(Cc2cnc(N)nc2N)c1 [compound 2] | 1.51 | 1.44 | 2.46 | 1.02 | 0.9 | – | – | – | – | – | – | – | –
NCCOCCOCC(=O)Nc1nc2ncc(CNc3ccc(C(=O)NC(CCC(=O)O)C(=O)O)cc3)nc2c(=O)[nH]1 (centres unmarked) [compound 6] | 1.17 | – | – | 0.87 | – | – | – | – | – | – | 1.16 | 1.29 | 0.99
CCCCCCOc1ccc(Cc2cnc(N)nc2N)cc1 [compound 1] | 1.21 | 1.27 | 1.52 | 0.82 | 0.96 | – | – | – | – | – | – | – | –
NCCCNc1ccc(C(=O)NC(CCC(=O)O)C(=O)O)cc1 (centres unmarked) [compound 7] | 1.02 | – | – | 0.94 | – | – | – | – | – | – | 1.11 | 0.96 | 1.07
